Measurements published in the NIST ThermoML archive (doi:10.1021/je100734t).
Numbers after ± are expanded uncertainties.

Test: xn = mol fraction of the nth substance listed
Details: 101 kPa, Liquid; for speed of sound: Pulse-echo method

**Q.** Which speed of sound (293.15 K, x2 = 0) does the source give for `CCCCCCCCCCO` [decan-1-ol] + CCc1ccccc1 here?
**A.** 1396 ± 2 m/s

**Q.** And the speed of sound (293.15 K, x2 = 0.0666)?
**A.** 1391 ± 2 m/s

**Q.** And the speed of sound (293.15 K, x2 = 0.1392)?
**A.** 1385 ± 2 m/s

**Q.** What about the speed of sound (293.15 K, x2 = 0.1932) of the same molecule?
**A.** 1381 ± 2 m/s

**Q.** And the speed of sound (293.15 K, x2 = 0.2642)?
**A.** 1375 ± 2 m/s

**Q.** What about the speed of sound (293.15 K, x2 = 0.3355) of the same molecule?
**A.** 1369 ± 2 m/s

**Q.** And the speed of sound (293.15 K, x2 = 0.3936)?
**A.** 1364 ± 2 m/s

**Q.** What about the speed of sound (293.15 K, x2 = 0.4483) of the same molecule?
**A.** 1360 ± 2 m/s

**Q.** What about the speed of sound (293.15 K, x2 = 0.5238) of the same molecule?
**A.** 1354 ± 2 m/s

**Q.** What about the speed of sound (293.15 K, x2 = 0.598) of the same molecule?
**A.** 1349 ± 2 m/s

**Q.** What about the speed of sound (293.15 K, x2 = 0.6621) of the same molecule?
**A.** 1344 ± 2 m/s

**Q.** And the speed of sound (293.15 K, x2 = 0.7309)?
**A.** 1341 ± 2 m/s

**Q.** And the speed of sound (293.15 K, x2 = 0.7953)?
**A.** 1338 ± 2 m/s

**Q.** What about the speed of sound (293.15 K, x2 = 0.8668) of the same molecule?
**A.** 1336 ± 2 m/s

**Q.** What about the speed of sound (293.15 K, x2 = 0.9396) of the same molecule?
**A.** 1336 ± 2 m/s

**Q.** And the mass density (293.15 K, x2 = 0)?
**A.** 829.98 ± 0.42 kg/m3

**Q.** What about the mass density (293.15 K, x2 = 0.0666) of the same molecule?
**A.** 831.5 ± 0.42 kg/m3

**Q.** And the mass density (293.15 K, x2 = 0.1392)?
**A.** 833.18 ± 0.42 kg/m3

**Q.** What about the mass density (293.15 K, x2 = 0.1932) of the same molecule?
**A.** 834.47 ± 0.41 kg/m3

**Q.** What about the mass density (293.15 K, x2 = 0.2642) of the same molecule?
**A.** 836.24 ± 0.41 kg/m3

**Q.** What about the mass density (293.15 K, x2 = 0.3355) of the same molecule?
**A.** 838.11 ± 0.4 kg/m3

**Q.** What about the mass density (293.15 K, x2 = 0.3936) of the same molecule?
**A.** 839.72 ± 0.4 kg/m3

**Q.** And the mass density (293.15 K, x2 = 0.4483)?
**A.** 841.33 ± 0.4 kg/m3

**Q.** What about the mass density (293.15 K, x2 = 0.5238) of the same molecule?
**A.** 843.73 ± 0.39 kg/m3

**Q.** And the mass density (293.15 K, x2 = 0.598)?
**A.** 846.33 ± 0.39 kg/m3

**Q.** And the mass density (293.15 K, x2 = 0.6621)?
**A.** 848.79 ± 0.38 kg/m3

**Q.** What about the mass density (293.15 K, x2 = 0.7309) of the same molecule?
**A.** 851.72 ± 0.38 kg/m3

**Q.** And the mass density (293.15 K, x2 = 0.7953)?
**A.** 854.7 ± 0.37 kg/m3

**Q.** And the mass density (293.15 K, x2 = 0.8668)?
**A.** 858.41 ± 0.36 kg/m3

**Q.** What about the mass density (293.15 K, x2 = 0.9396) of the same molecule?
**A.** 862.65 ± 0.36 kg/m3

**Q.** What about the speed of sound (303.15 K, x2 = 0) of the same molecule?
**A.** 1362 ± 2 m/s

**Q.** And the speed of sound (303.15 K, x2 = 0.0666)?
**A.** 1356 ± 2 m/s

**Q.** And the speed of sound (303.15 K, x2 = 0.1392)?
**A.** 1350 ± 2 m/s

**Q.** What about the speed of sound (303.15 K, x2 = 0.1932) of the same molecule?
**A.** 1345 ± 2 m/s

**Q.** And the speed of sound (303.15 K, x2 = 0.2642)?
**A.** 1339 ± 2 m/s

**Q.** What about the speed of sound (303.15 K, x2 = 0.3355) of the same molecule?
**A.** 1333 ± 2 m/s

**Q.** What about the speed of sound (303.15 K, x2 = 0.3936) of the same molecule?
**A.** 1327 ± 2 m/s

**Q.** What about the speed of sound (303.15 K, x2 = 0.4483) of the same molecule?
**A.** 1322 ± 2 m/s

**Q.** What about the speed of sound (303.15 K, x2 = 0.5238) of the same molecule?
**A.** 1316 ± 2 m/s

**Q.** And the speed of sound (303.15 K, x2 = 0.598)?
**A.** 1310 ± 2 m/s

**Q.** What about the speed of sound (303.15 K, x2 = 0.6621) of the same molecule?
**A.** 1305 ± 2 m/s

**Q.** And the speed of sound (303.15 K, x2 = 0.7309)?
**A.** 1301 ± 2 m/s

**Q.** And the speed of sound (303.15 K, x2 = 0.7953)?
**A.** 1298 ± 2 m/s

**Q.** And the speed of sound (303.15 K, x2 = 0.8668)?
**A.** 1295 ± 2 m/s

**Q.** What about the speed of sound (303.15 K, x2 = 0.9396) of the same molecule?
**A.** 1295 ± 2 m/s

**Q.** What about the mass density (303.15 K, x2 = 0) of the same molecule?
**A.** 823.1 ± 0.43 kg/m3

**Q.** And the mass density (303.15 K, x2 = 0.0666)?
**A.** 824.47 ± 0.43 kg/m3

**Q.** And the mass density (303.15 K, x2 = 0.1392)?
**A.** 826 ± 0.43 kg/m3

**Q.** And the mass density (303.15 K, x2 = 0.1932)?
**A.** 827.18 ± 0.42 kg/m3

**Q.** And the mass density (303.15 K, x2 = 0.2642)?
**A.** 828.8 ± 0.42 kg/m3

**Q.** What about the mass density (303.15 K, x2 = 0.3355) of the same molecule?
**A.** 830.52 ± 0.41 kg/m3

**Q.** What about the mass density (303.15 K, x2 = 0.3936) of the same molecule?
**A.** 832.03 ± 0.41 kg/m3

**Q.** What about the mass density (303.15 K, x2 = 0.4483) of the same molecule?
**A.** 833.52 ± 0.41 kg/m3

**Q.** What about the mass density (303.15 K, x2 = 0.5238) of the same molecule?
**A.** 835.78 ± 0.4 kg/m3

**Q.** What about the mass density (303.15 K, x2 = 0.598) of the same molecule?
**A.** 838.23 ± 0.4 kg/m3

**Q.** And the mass density (303.15 K, x2 = 0.6621)?
**A.** 840.59 ± 0.39 kg/m3

**Q.** What about the mass density (303.15 K, x2 = 0.7309) of the same molecule?
**A.** 843.4 ± 0.39 kg/m3

**Q.** What about the mass density (303.15 K, x2 = 0.7953) of the same molecule?
**A.** 846.31 ± 0.38 kg/m3

**Q.** What about the mass density (303.15 K, x2 = 0.8668) of the same molecule?
**A.** 849.96 ± 0.37 kg/m3

**Q.** What about the mass density (303.15 K, x2 = 0.9396) of the same molecule?
**A.** 854.3 ± 0.37 kg/m3

**Q.** What about the speed of sound (313.15 K, x2 = 0) of the same molecule?
**A.** 1329 ± 2 m/s

**Q.** What about the speed of sound (313.15 K, x2 = 0.0666) of the same molecule?
**A.** 1322 ± 2 m/s

**Q.** And the speed of sound (313.15 K, x2 = 0.1392)?
**A.** 1316 ± 2 m/s

**Q.** What about the speed of sound (313.15 K, x2 = 0.1932) of the same molecule?
**A.** 1310 ± 2 m/s

**Q.** And the speed of sound (313.15 K, x2 = 0.2642)?
**A.** 1304 ± 2 m/s

**Q.** And the speed of sound (313.15 K, x2 = 0.3355)?
**A.** 1297 ± 2 m/s

**Q.** What about the speed of sound (313.15 K, x2 = 0.3936) of the same molecule?
**A.** 1291 ± 2 m/s

**Q.** And the speed of sound (313.15 K, x2 = 0.4483)?
**A.** 1286 ± 2 m/s

**Q.** What about the speed of sound (313.15 K, x2 = 0.5238) of the same molecule?
**A.** 1279 ± 2 m/s

**Q.** What about the speed of sound (313.15 K, x2 = 0.598) of the same molecule?
**A.** 1273 ± 2 m/s

**Q.** What about the speed of sound (313.15 K, x2 = 0.6621) of the same molecule?
**A.** 1268 ± 2 m/s

**Q.** What about the speed of sound (313.15 K, x2 = 0.7309) of the same molecule?
**A.** 1263 ± 2 m/s

**Q.** What about the speed of sound (313.15 K, x2 = 0.7953) of the same molecule?
**A.** 1259 ± 2 m/s

**Q.** What about the speed of sound (313.15 K, x2 = 0.8668) of the same molecule?
**A.** 1256 ± 2 m/s

**Q.** And the speed of sound (313.15 K, x2 = 0.9396)?
**A.** 1255 ± 2 m/s

**Q.** And the mass density (313.15 K, x2 = 0)?
**A.** 816.27 ± 0.43 kg/m3

**Q.** And the mass density (313.15 K, x2 = 0.0666)?
**A.** 817.46 ± 0.43 kg/m3

**Q.** What about the mass density (313.15 K, x2 = 0.1392) of the same molecule?
**A.** 818.82 ± 0.43 kg/m3

**Q.** What about the mass density (313.15 K, x2 = 0.1932) of the same molecule?
**A.** 819.88 ± 0.42 kg/m3

**Q.** What about the mass density (313.15 K, x2 = 0.2642) of the same molecule?
**A.** 821.32 ± 0.42 kg/m3

**Q.** What about the mass density (313.15 K, x2 = 0.3355) of the same molecule?
**A.** 822.85 ± 0.41 kg/m3

**Q.** What about the mass density (313.15 K, x2 = 0.3936) of the same molecule?
**A.** 824.21 ± 0.41 kg/m3

**Q.** What about the mass density (313.15 K, x2 = 0.4483) of the same molecule?
**A.** 825.58 ± 0.41 kg/m3

**Q.** What about the mass density (313.15 K, x2 = 0.5238) of the same molecule?
**A.** 827.65 ± 0.4 kg/m3

**Q.** What about the mass density (313.15 K, x2 = 0.598) of the same molecule?
**A.** 829.91 ± 0.4 kg/m3

**Q.** And the mass density (313.15 K, x2 = 0.6621)?
**A.** 832.13 ± 0.39 kg/m3

**Q.** And the mass density (313.15 K, x2 = 0.7309)?
**A.** 834.8 ± 0.39 kg/m3

**Q.** And the mass density (313.15 K, x2 = 0.7953)?
**A.** 837.56 ± 0.38 kg/m3

**Q.** And the mass density (313.15 K, x2 = 0.8668)?
**A.** 841.06 ± 0.37 kg/m3

**Q.** What about the mass density (313.15 K, x2 = 0.9396) of the same molecule?
**A.** 845.13 ± 0.37 kg/m3
